Experimental data reported in patent US10703745B2, “Acyl phosphonamidates and acyl benzylamines that are Bcl family antagonists for use in clinical management of conditions caused or mediated by senescent cells and for treating cancer” (Unity Biotechnology, Inc., priority 2018, dated 2020).

Columns and labels:
[1] = system: 3MR or INK-ATTAC mice exposed to cigarette smoke; assay: Cigarette smoke COPD model, oxygen saturation by pulse oximeter; type: in vivo, mouse; conditions: after two months of cigarette smoke exposure, compared with untreated controls
Description: The mice used in this study include the 3MR strain, described in US 2017/0027139 A1 and in Demaria et al., Dev Cell. 2014 Dec. 22; 31(6): 722-733. The 3MR mouse has a transgene encoding thymidine kinase that converts the prodrug ganciclovir (GCV) to a compound that is lethal to cells. The enzyme in the transgene is placed under control of the p16 promoter, which causes it to be specifically expressed in senescent cells. Treatment of the mice with GCV eliminates senescent cells.
Other mice used in this study include the INK-ATTAC strain, described in US 2015/0296755 A1 and in Baker et al., Nature 2011 Nov. 2; 479(7372):232-236. The INK-ATTAC mouse has a transgene encoding switchable caspase 8 under control of the p16 promoter. The caspase 8 can be activated by treating the mice with the switch compound AP20187, whereupon the caspase 8 directly induces apoptosis in senescent cells, eliminating them from the mouse.
To conduct the experiment, six-week-old 3MR (n=35) or INK-ATTAC (n=35) mice were chronically exposed to cigarette smoke generated from a Teague TE-10 system, an automatically-controlled cigarette smoking machine that produces a combination of side-stream and mainstream cigarette smoke in a chamber, which is transported to a collecting and mixing chamber where varying amounts of air is mixed with the smoke mixture. The COPD protocol was adapted from the COPD core facility at Johns Hopkins University (Rangasamy et al., 2004, J. Clin. Invest. 114:1248-1259; Yao et al., 2012, J. Clin. Invest. 122:2032-2045).
Mice received a total of 6 hours of cigarette smoke exposure per day, 5 days a week for 6 months. Each lighted cigarette (3R4F research cigarettes containing 10.9 mg of total particulate matter (TPM), 9.4 mg of tar, and 0.726 mg of nicotine, and 11.9 mg carbon monoxide per cigarette [University of Kentucky, Lexington, Ky.]) was puffed for 2 seconds and once every minute for a total of 8 puffs, with the flow rate of 1.05 L/min, to provide a standard puff of 35 cm3. The smoke machine was adjusted to produce a mixture of side stream smoke (89%) and mainstream smoke (11%) by smoldering 2 cigarettes at one time. The smoke chamber atmosphere was monitored for total suspended particulates (80-120 mg/m3) and carbon monoxide (350 ppm). […]
After two months of cigarette smoke (CS) exposure, lung function was assessed by monitoring oxygen saturation using the MouseSTAT PhysioSuite™ pulse oximeter (Kent Scientific). […] Mice were monitored for 30 seconds and the average peripheral capillary oxygen saturation (SpO2) measurement over this duration was calculated.

[2] = system: primary cells from patients with B-cell malignancies; conditions: in vitro; cited from earlier work
cancer cells = conditions: cited from earlier work
[3] = system: C57BL/6J mice with surgery-induced osteoarthritis; assay: Osteoarthritis model (ACL surgery): qRT-PCR of senescence markers and SASP factors in operated joints; type: in vivo, mouse; conditions: 5.8 μg per operated knee intra-articular, 4 weeks post-surgery
Procedure: (§1) The model was implemented as follows. C57BL/6J mice underwent surgery to cut the anterior cruciate ligament of one rear limb to induce osteoarthritis in the joint of that limb. During week 3 and week 4 post-surgery, the mice were treated with 5.8 μg of Nutlin-3A (n=7) per operated knee by intra-articular injection, q.o.d. for 2 weeks. At the end of 4 weeks post-surgery, joints of the mice were monitored for presence of senescent cells, assessed for function, monitored for markers of inflammation, and underwent histological assessment.
Two control groups of mice were included in the studies performed: one group comprising C57BL/6J or 3MR mice that had undergone a sham surgery (n=3) (i.e., surgical procedures followed except for cutting the ACL) and intra-articular injections of vehicle parallel to the GCV (ganciclovir) treated group; and one group comprising C57BL/6J or 3MR mice that had undergone an ACL surgery and received intra-articular injections of vehicle (n=5) parallel to the GCV-treated group. RNA from the operated joints of mice from the Nutlin-3A treated mice was analyzed for expression of SASP factors (mmp3, IL-6) and senescence markers (p16). qRT-PCR was performed to detect mRNA levels.

[4] = system: C57BL/6J mice with surgery-induced osteoarthritis; assay: Osteoarthritis model: weight bearing test of hind limbs; type: in vivo, mouse; conditions: 4 weeks post-surgery
Procedure: as §1
Function of the limbs was assessed 4 weeks post-surgery by a weight bearing test to determine which leg the mice favored. The mice were allowed to acclimate to the chamber on at least three occasions prior to taking measurements. Mice were maneuvered inside the chamber to stand with one hind paw on each scale. The weight that was placed on each hind limb was measured over a three second period. At least three separate measurements were made for each animal at each time point. The results were expressed as the percentage of the weight placed on the operated limb versus the contralateral unoperated limb.

[5] = system: C57BL/6J mice with surgery-induced osteoarthritis; assay: Osteoarthritis model: histopathology of joint tissue; type: in vivo, mouse; conditions: ACL surgery, 4 weeks post-surgery
Procedure: as §1

[6] = system: LDLR-/- mice fed a high fat diet; assay: Atherosclerosis model: RT-PCR of SASP factors and senescent cell markers in aortic arch; type: in vivo, mouse; conditions: 25 mg/kg intraperitoneally, HFD
Procedure: Two groups of LDLR−/− mice (10 weeks) are fed a high fat diet (HFD) (Harlan Teklad TD.88137) having 42% calories from fat, beginning at Week 0 and throughout the study. Two groups of LDLR−/− mice (10 weeks) are fed normal chow (−HFD). From weeks 0-2, one group of HFD mice and −HFD mice are treated with Nutlin-3A (25 mg/kg, intraperitoneally). One treatment cycle is 14 days treatment, 14 days off. Vehicle is administered to one group of HFD mice and one group of −HFD mice. At week 4 (timepoint 1), one group of mice are sacrificed and to assess presence of senescent cells in the plaques. For the some of the remaining mice, Nutlin-3A and vehicle administration is repeated from weeks 4-6. […]
At the end of timepoint 1, LDLR−/− mice fed a HFD and treated with Nutlin-3A or vehicle were sacrificed (n=3, all groups), and the aortic arches were dissected for RT-PCR analysis of SASP factors and senescent cell markers. Values were normalized to GAPDH and expressed as fold-change versus age-matched, vehicle-treated LDLR−/− mice on a normal diet.
At the end of timepoint 2, LDLR−/− mice fed a HFD and treated with Nutlin-3A or vehicle (n=3 for all groups) were sacrificed, and aortic arches were dissected for RT-PCR analysis of SASP factors and senescent cell markers. Values were normalized to GAPDH and expressed as fold-change versus age-matched, vehicle-treated LDLR−/− mice on a normal diet.

[7] = system: LDLR-/- mice fed a high fat diet; assay: Atherosclerosis model: Sudan IV staining of aortic plaques; type: in vivo, mouse; conditions: timepoint 3 (week 12), 25 mg/kg intraperitoneally, HFD
Procedure: (§2) Two groups of LDLR−/− mice (10 weeks) are fed a high fat diet (HFD) (Harlan Teklad TD.88137) having 42% calories from fat, beginning at Week 0 and throughout the study. Two groups of LDLR−/− mice (10 weeks) are fed normal chow (−HFD). From weeks 0-2, one group of HFD mice and −HFD mice are treated with Nutlin-3A (25 mg/kg, intraperitoneally). One treatment cycle is 14 days treatment, 14 days off. Vehicle is administered to one group of HFD mice and one group of −HFD mice. At week 4 (timepoint 1), one group of mice are sacrificed and to assess presence of senescent cells in the plaques. For the some of the remaining mice, Nutlin-3A and vehicle administration is repeated from weeks 4-6. At week 8 (timepoint 2), the mice are sacrificed and to assess presence of senescent cells in the plaques. The remaining mice are treated with Nutlin-3A or vehicle from weeks 8-10. At week 12 (timepoint 3), the mice are sacrificed and to assess the level of plaque and the number of senescent cells in the plaques.
(§3) At the end of timepoint 3, LDLR−/− mice fed a HFD and treated with Nutlin-3A or vehicle (n=3 for all groups) were sacrificed, and aortas were dissected and stained with Sudan IV to detect the presence of lipid. Body composition of the mice was analyzed by MRI, and circulating blood cells were counted by Hemavet™.

[8] = system: LDLR-/- mice fed a high fat diet; assay: Atherosclerosis model: body composition by MRI and circulating blood cell counts; type: in vivo, mouse; conditions: timepoint 3
Procedure: as §2, §3

Structure (SMILES): Nc1nc(O)c2ncn(COC(CO)CO)c2n1 [ganciclovir]
- SpO2 levels [1]: statistically significant increases

Structure (SMILES): CN(C)CC[C@H](CSc1ccccc1)Nc1ccc(S(=O)(=O)NC(=O)c2ccc(N3CCN(Cc4ccccc4-c4ccc(Cl)cc4)CC3)cc2)cc1[N+](=O)[O-] [ABT-737]
- sensitivity of primary cells from patients with B-cell malignancies [2]: sensitive
- dose-limiting toxicity in human patients (cancer cells): dose-limiting thrombocytopenia
- efficacy against cancer cells in human patients (cancer cells): effective against some types of cancer cells

Structure (SMILES): CC[C@H](C(=O)N1CCCC[C@H]1C(=O)O[C@H](CCc1ccc(OC)c(OC)c1)c1cccc(OCC(=O)NCC(CNC(=O)COc2cccc([C@@H](CCc3ccc(OC)c(OC)c3)OC(=O)[C@@H]3CCCCN3C(=O)[C@@H](CC)c3cc(OC)c(OC)c(OC)c3)c2)CN(C)C)c1)c1cc(OC)c(OC)c(OC)c1 [AP2018]
- SpO2 levels [1]: statistically significant increases

Structure (SMILES): COc1ccc(C2=N[C@@H](c3ccc(Cl)cc3)[C@@H](c3ccc(Cl)cc3)N2C(=O)N2CCNC(=O)C2)c(OC(C)C)c1 [Nutlin-3A]
- expression of IL-6 in the tissue ([3]; q.o.d. for 2 weeks, mRNA): reduced the expression back to below the level of the controls
- expression of MMP13 in the tissue ([3]; q.o.d. for 2 weeks, mRNA): reduced the expression back to below the level of the controls
- expression of p16 in the tissue ([3]; q.o.d. for 2 weeks, mRNA): reduced the expression back to below the level of the controls
- senescent cells in the joint [3]: cleared senescent cells from the joint
- weight placed on operated limb versus contralateral unoperated limb (favoring of unoperated hind limb) [4]: abrogated this effect
- destruction of the proteoglycan layer (histopathology) [5]: completely abrogated this effect
- SpO2 levels [1]: statistically significant increases
- expression of SASP factors and senescent cell markers MMP3, MMP13, PAI1, p21, IGFBP2, IL-1A, IL-1B in aortic arch ([6]; timepoint 1 (week 4), one treatment cycle): reduced expression of several SASP factors and senescent cell markers
- expression of SASP factors and senescent cell markers in aortic arch ([6]; timepoint 2 (week 8), multiple treatment cycles): reduced expression of most markers
- reduction of surface area covered by plaques in the descending aorta [7]: about 45%
- body fat composition ([8]; mice fed the high fat diet): decreased
- mass ([8]; mice fed the high fat diet): decreased
- lymphocyte counts versus vehicle treated mice [8]: equivalent
- platelet counts versus vehicle treated mice [8]: equivalent

Structure (SMILES): CC1(C)CCC(c2ccc(Cl)cc2)=C(CN2CCN(c3ccc(C(=O)NS(=O)(=O)c4ccc(N[C@H](CCN5CCOCC5)CSc5ccccc5)c(S(=O)(=O)C(F)(F)F)c4)cc3)CC2)C1 [ABT-263, Navitoclax]
- SpO2 levels [1]: statistically significant increases
